Experiment [1] has as its system CD62P on platelets. As to the kind of experiment: Platelet stimulation, CD62P expression by MLSC. The experiment is classed as cell-based, human. The method, then: Platelet stimulation. Thrombin stimulation was carried out on either washed platelets or 1:10 diluted whole blood in the presence of the fibrinogen cascade inhibitor peptide glycine-proline-arginine-proline (GPRP, 2 mM final concentration). Thrombin (5 U/ml) was added to 10 μl of sample in 75 μl Tyrode's buffer containing the GPRP (final total volume of 100 μl). Because the CTAD tubes contain reversible inhibitors of platelet activation, it was initially determined that a 10-fold dilution of the whole blood was sufficient to reduce the inhibitors below effective concentration and permit stimulation. […] Next, the reaction was incubated in a 37° C. water bath for 5 or 10 minutes and subsequently diluted to 1000 μl […] with Tyrode's buffer supplemented with 1.5 mM theophylline and 0.37 mM adenosine (final concentration). […]
Staining for MLSC. […] Twenty-one microliters of diluted sample was loaded into Flex32 capillary array and analyzed by Surroscan MLSC. […] Images were converted to flow cytometry standard (fcs) format with in-house software and analyzed with FlowJo™ cytometry analysis software (Tree Star, Inc., San Carlos, Calif.). Fluorescence intensities are compensated for spectral overlap of the dyes. […]

The test system of experiment [2] is CD62P on platelets. As to the kind of experiment: CD62P activation marker on platelets in unfixed whole blood drawn into EDTA or CTAD tubes, MLSC. Format: cell-based, human. As to conditions: for Mean Intensity CD62P: mean relative intensity, entire platelet population. The method, then:
(§1) Staining for MLSC. For whole blood platelet stains, 10 μl of whole blood was diluted into 990 μl of Tyrode's buffer supplemented with 1.5 mM theophylline and 0.37 mM adenosine for a final dilution of 1:100. Twenty microliters of diluted whole blood, thrombin-stimulated samples, or control samples were added to 96 well micro-titer plates containing 5 μl of the appropriate reagent cocktail. The cells were incubated in the dark at room temperature for 20 minutes. At the end of the incubation, 50 μl of modified PBS/BSA buffer supplemented with theophylline (1.5 mM)/adenosine (0.37 mM) (to prevent activation), and Zwittergent (50 mM) was added to all the wells and mixed thoroughly. Twenty-one microliters of diluted sample was loaded into Flex32 capillary array and analyzed by Surroscan MLSC. The assays are performed in homogeneous mode, without removal of unbound reagent. After all dilutions, the fluorescent platelet counts per capillary are about 1,000-2,000, comfortably in the range of 10 to 12,000 that is appropriate for the cytometry. This platelet count level provides appropriate counting statistics and avoids coincident events. Images were converted to flow cytometry standard (fcs) format with in-house software and analyzed with FlowJo™ cytometry analysis software (Tree Star, Inc., San Carlos, Calif.). Fluorescence intensities are compensated for spectral overlap of the dyes.
(§2) Previous research has shown that addition of platelet inhibitors to the anti-coagulant greatly reduces the activation state of human platelets prior to testing. Kuhne et al., Am. J. Hematol. 50:40-5 (1995); Mody et al., Transfus.Med. 9:147-54 (1999). […] Blood was obtained from a volunteer (set of 5 volunteers) and processed within 4 hours. This was done without fixation in order to maintain epitope integrity and allow for further activation studies. The samples were incubated with antibodies against platelet surface activation markers CD62P and CD63, as well as antibodies against GPIIIA, an antigen present on all platelets. All platelets were identified with GPIIIa (Cy5.5). The sample was then analyzed using MLSC. Gates for the Cy5-CD62P and Cy5-CD63 positive events were drawn based upon MOPC-21 control antibody staining.

Experiment [3] has as its system CD63 on platelets. As to the kind of experiment: CD63 activation marker on platelets in unfixed whole blood drawn into EDTA or CTAD tubes, MLSC. Format: cell-based, human. To be noted: for Mean Intensity CD63: mean relative intensity, entire platelet population. As to the method:
as §1, §2

The subject of experiment [4] is platelets. The experiment in a line: Pan platelet surface antigen expression (CD9, GPIIIA, GPIIB), EDTA versus CTAD samples, MLSC. The experiment is classed as cell-based, human. The method, then: as §1, with “After all dilutions, the fluorescent platelet counts per capillary are about 1,000-2,000, comfortably in the range of 10 to 12,000 that is appropriate for the cytometry. This platelet count level provides appropriate counting statistics and avoids coincident events.” left out
(§3) Previous research has shown that addition of platelet inhibitors to the anti-coagulant greatly reduces the activation state of human platelets prior to testing. […] The sample was then analyzed using MLSC. […]

Experiment [5] has as its system platelets. The experiment in a line: Total platelet count in EDTA and CTAD tubes, MLSC. The experiment is classed as cell-based, human. As to conditions: in the tubes. As to the method:
as §1, with “After all dilutions, the fluorescent platelet counts per capillary are about 1,000-2,000, comfortably in the range of 10 to 12,000 that is appropriate for the cytometry. This platelet count level provides appropriate counting statistics and avoids coincident events.” left out
as §3

The next experiment relates to platelet factor 4 (PF4). The experiment in a line: Platelet factor 4 in plasma by chemiluminescent ELISA. Set-up: species or system human.
For experiment [6], the system named is CD63 on platelets. The experiment in a line: Platelet stimulation, CD63 expression by MLSC. Format: cell-based, human. The method, then: Platelet stimulation. Thrombin stimulation was carried out on either washed platelets or 1:10 diluted whole blood in the presence of the fibrinogen cascade inhibitor peptide glycine-proline-arginine-proline (GPRP, 2 mM final concentration). Thrombin (5 U/ml) was added to 10 μl of sample in 75 μl Tyrode's buffer containing the GPRP (final total volume of 100 μl). Because the CTAD tubes contain reversible inhibitors of platelet activation, it was initially determined that a 10-fold dilution of the whole blood was sufficient to reduce the inhibitors below effective concentration and permit stimulation. […] Next, the reaction was incubated in a 37° C. water bath for 5 or 10 minutes and subsequently diluted to 1000 μl […] with Tyrode's buffer supplemented with 1.5 mM theophylline and 0.37 mM adenosine (final concentration). In order to stop the stimulation and prevent non-specific activation of the control and test samples caused by the handling and staining techniques, theophylline and adenosine were added to the samples. A control sample lacking only the thrombin was run in parallel.
Staining for MLSC. For whole blood platelet stains, 10 μl of whole blood was diluted into 990 μl of Tyrode's buffer supplemented with 1.5 mM theophylline and 0.37 mM adenosine for a final dilution of 1:100. Twenty microliters of diluted whole blood, thrombin-stimulated samples, or control samples were added to 96 well micro-titer plates containing 5 μl of the appropriate reagent cocktail. The cells were incubated in the dark at room temperature for 20 minutes. […] Twenty-one microliters of diluted sample was loaded into Flex32 capillary array and analyzed by Surroscan MLSC. […] Images were converted to flow cytometry standard (fcs) format with in-house software and analyzed with FlowJo™ cytometry analysis software (Tree Star, Inc., San Carlos, Calif.). Fluorescence intensities are compensated for spectral overlap of the dyes. […]

In experiment [7] the test system is CD62P on platelets. As to conditions: thrombin; expected value; cited from earlier work.
For experiment [8], the system named is CD63 on platelets. As to conditions: thrombin; expected value; cited from earlier work.
Setting [9] is: 24 hr from draw, average of 4 measurements.
The mark [10] stands for this setting: 48 hr from draw, average of 5 subjects.
[11] abbreviates: thrombin 5 U/ml, 5 minute activation, whole blood 1:10 with GPRP, average of 19 to 22 subjects.

Method for platelet factor 4 (PF4): Platelet Factor 4 was measured by chemiluminescent using ELISA. Antibodies were obtained from U.S. Biologicals (Swampscott, Mass.) and Affinity Biologicals Enzyme Research Lab. (Southbend, Ind.), recombinant standard from Chemicon (Temecula, Calif.). Briefly, Corning black opaque 96 well microtiter plates were coated with rabbit polyclonal anti-PF4 (human) overnight at 4° C. Plates were washed and samples or standards were added to the wells and allowed to incubate at room temperature. After washing, biotinylated polyclonal sheep anti-PF4 (human) was added followed by washing and the addition of avidin-alkaline Phosphatase. Plates were washed and the CDP-Star R (Tropix, Bedford, Mass.)) substrate added, allowed to develop and read on the Wallac Victor plate reader. The assay sensitivity of the assay is 20 pg/ml.
PF4 expression was determined by ELISA (sensitivity of 20 pg/ml).

With `Nc1ncnc2c1ncn2[C@@H]1O[C@H](COP(=O)(O)OP(=O)(O)O)[C@@H](O)[C@H]1O` [ADP, adenosine diphosphate], the “platelets expressing CD62P” value in the experiment on CD62P on platelets [1] (30-minute stimulation with ADP) was “greater than 60%”.

As to `O=C(O)CN(CCN(CC(=O)O)CC(=O)O)CC(=O)O` [EDTA, Ethylene-diamino-tetra-acetic acid], the “% Positive CD62P” value with CD62P on platelets [2] (setting [9]) is listed as 49 ± 20 %; in the experiment with CD62P on platelets [2] (setting [10]), 41 ± 4.8 %; in the experiment with CD62P on platelets [2] (<4 hr from draw, platelets identified with GPIIIA, average of 5 subjects), 37 ± 17 %. The “Mean Intensity CD62P” value is given as 910 ± 130 with CD62P on platelets [2] (24 hr from draw), 900 ± 60 with CD62P on platelets [2] (48 hr from draw) and 1110 ± 230 with CD62P on platelets [2] (<4 hr from draw). Moreover, the “range of platelet activation levels observed” value in the experiment on CD62P on platelets [2] (EDTA samples, all time points) is 8 to 50%. Besides, the “platelets positive for CD62P” value in the experiment with CD62P on platelets [2] (matched samples analyzed over 48 hours) is reported as 40-50%. In addition, the “% Positive CD63” value with CD63 on platelets [3] (setting [9]) was determined as 37 ± 22%; in the experiment with CD63 on platelets [3] (setting [10]), 15 ± 7.0 %; in the experiment on CD63 on platelets [3] (<4 hr from draw, average of 5 subjects), 22 ± 20 %. The results for the “Mean Intensity CD63” value in the experiment on CD63 on platelets [3] (24 hr from draw), with CD63 on platelets [3] (48 hr from draw) and in the experiment on CD63 on platelets [3] (<4 hr from draw) were 690 ± 77, 680 ± 42 and 760 ± 43, respectively. In addition, in the experiment on platelets [4] (EDTA relative to CTAD), the “mean fluorescence intensity of GPIIB, lower in EDTA compared to CTAD” value is given as “about 40%”. Moreover, in the experiment with platelets [4] (between EDTA and CTAD samples), the “differences in expression of pan surface antigens CD9 or GPIIIA on platelets” value is “no observable differences”. Moreover, in the experiment with platelets [5], the “change in total platelet count from 4 to 48 hours” value is listed as “small but significant decrease”. For the same compound, the “PF4 release, times greater in EDTA than in CTAD samples” value in the experiment with platelet factor 4 (PF4) (EDTA relative to CTAD, p<0.05) came out at 5 times. In the experiment on platelet factor 4 (PF4) (average of 5 individuals, matched EDTA and CTAD draws), this compound returned a PF4 in plasma of 627 ± 449 pg/mL.

Take thrombin: the “Observed CD62P positive platelets” value with CD62P on platelets [1] (setting [11]) is listed as 192,000 ± 53,000 platelets/μl. Moreover, in the experiment on CD63 on platelets [6] (five minute stimulation with thrombin), the “expression level of CD63 on platelets after stimulation” value is given as “greatly increased”. In addition, in the experiment on CD63 on platelets [6] (setting [11]), the “Observed CD63 positive platelets” value was 142,000 ± 40,000 platelets/μl. Further, the “% of total platelets expressing CD63” value in the experiment with CD63 on platelets [6] (thrombin activation (5 U/ml, 5 minute), CTAD whole blood) is on record as 72 ± 8.2%. Also, the “Expected % CD62P positive” value in the experiment on CD62P on platelets [7] was above 95%. For the same compound, the “Expected % CD63 positive” value in the experiment on CD63 on platelets [8] was above 80%.

Values taken from patent publication US7387880B2, “Method for monitoring resting and activated platelets in unfixed blood samples” (PPD Biomarker Discovery Sciences, LLC, priority 2000, dated 2008).
